Patent publication US9669025B2 (INFLAMMATORY RESPONSE RESEARCH, INC., priority 2013, dated 2017)
Like-named read-outs stand apart in the source and are kept apart here.

Legend:
Henoch Schonlein Purpura = assay: Example 2 case study: person with Henoch Schonlein Purpura; assay type: in vivo, human; conditions: before the combination; ibuprofen and diphenhydramine
Text: Case Study: person with Henoch Schonlein Purpura The patient is a person originally seen and evaluated in London, England, Feb. […] […] The ibuprofen and diphenhydramine were discontinued.

[1] = in vivo; cited from earlier work
IL-4, IL-6, and IL-8 = conditions: cited from earlier work
eosinophil migration = conditions: cited from earlier work
[2] = system: histamine induced wheal and flare; conditions: cited from earlier work
[3] = cited from earlier work
H1 receptor = H1 receptor (Homo sapiens, UniProt P35367); conditions: acidic pH (inflamed tissue), relative to first generation molecules, cited from earlier work
Chain of H1 receptor (P35367 whole entry): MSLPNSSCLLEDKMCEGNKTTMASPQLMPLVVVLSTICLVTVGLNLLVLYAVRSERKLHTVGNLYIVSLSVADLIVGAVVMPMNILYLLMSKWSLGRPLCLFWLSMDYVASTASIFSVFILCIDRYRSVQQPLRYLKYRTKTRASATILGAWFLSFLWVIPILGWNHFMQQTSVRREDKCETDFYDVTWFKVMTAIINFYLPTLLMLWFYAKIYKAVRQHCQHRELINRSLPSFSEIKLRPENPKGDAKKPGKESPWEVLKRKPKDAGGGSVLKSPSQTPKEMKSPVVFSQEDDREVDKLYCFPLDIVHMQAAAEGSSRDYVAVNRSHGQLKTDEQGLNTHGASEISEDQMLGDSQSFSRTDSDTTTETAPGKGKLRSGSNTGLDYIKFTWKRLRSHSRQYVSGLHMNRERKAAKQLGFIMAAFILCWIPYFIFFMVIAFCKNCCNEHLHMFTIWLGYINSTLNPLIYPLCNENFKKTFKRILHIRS

human rhinovirus = conditions: airway epithelial cells; cited from earlier work
[4] = with warfarin, theophylline, digoxin, terfenadine, oral contraceptives, or prednisone; cited from earlier work
[5] = cited from earlier work; remark: listed apart in the source
[6] = cited from earlier work; for time to steady state level: montelukast
influenza = conditions: 2009 H1N1 pandemic; cited from earlier work
[7] = system: Churg-Strauss Syndrome (eosinophilic vasculitis); assay: Example 1 case study: person with Churg-Strauss Syndrome; assay type: in vivo, human; conditions: 2010, patient history

With `CN(C)CCOC(c1ccccc1)c1ccccc1` [diphenhydramine] the “response of recurrent Henoch Schonlein Purpura” value (Henoch Schonlein Purpura) was “poorly responsive”.

In the case of `CC(C)Cc1ccc(C(C)C(=O)O)cc1` (centres unmarked) [ibuprofen], the “response of recurrent Henoch Schonlein Purpura” value (Henoch Schonlein Purpura) is reported as “poorly responsive”.

In the case of `O=C(O)COCCN1CCN([C@H](c2ccccc2)c2ccc(Cl)cc2)CC1` [levocetirizine], the “time to steady state level” value [1] is listed as 40 h, the “inflammatory mediators, IL-4, IL-6, and IL-8” value (IL-4, IL-6, and IL-8) is listed as “decrease” and the “eosinophil migration / quantity” value (eosinophil migration) is listed as “decrease”. The “potency among the five modern generation antihistamines” value ([2]; histamine induced wheal and flare data) was “most potent”, the effectiveness versus fexofenadine ([2]; levocetirizine 5 mg per day vs fexofenadine 180 mg per day) was “more effective than fexofenadine” and the “principal side effect at higher doses” value ([3]; higher doses) was “Sedation”. For the same compound, the “doses safely administered in humans” value ([3]; human dosing safety studies) was “up to 30 mg/day”, the “enhanced receptor affinity over first generation mepyramine” value (H1 receptor) was “up to 5 ×” and the “enhanced receptor affinity over first generation mepyramine” value (H1 receptor; listed as Levocetirizine) was 5 ×. For the same compound, the “rhinovirus-induced ICAM-1 and cytokine expression and viral replication” value (human rhinovirus) was “inhibits”.

In the case of `CC(C)(O)c1ccccc1CC[C@@H](SCC1(CC(=O)O)CC1)c1cccc(/C=C/c2ccc3ccc(Cl)cc3n2)c1` [montelukast], the drug interactions [4] is listed as “no drug interactions”, the “doses administered without clinically important adverse experiences” value ([5]; adult patients for 22 weeks) is listed as “up to 200 mg/day” and the “doses administered without clinically important adverse experiences” value ([5]; short-term studies, patients for approximately one week) is listed as “up to 900 mg/day”. The “IV plasma concentration area under the curve profile versus oral tablet” value ([6]; IV 7 mg vs approved 10 mg oral tablet) was “comparable”, the linearity of pharmacokinetics ([6]; in vivo) was “linear pharmacokinetics to 50 mg” and the “time to peak plasma concentration” value ([6]; in vivo) was 3 to 4 h. For the same compound, the “time to steady state level” value [6] was “within two days”, the “time to steady state level” value ([6]; listed as Montelukast) was “less than two days” and the “effect of a standard meal on oral bioavailability and Cmax” value ([6]; standard meal) was “not affected”.

For `CCOC(=O)C1=C[C@@H](OC(CC)CC)[C@H](NC(C)=O)[C@@H](N)C1` [oseltamivir], the “influenza related lower respiratory tract complications” value (influenza) is listed as “did not appear to reduce”.

In the case of omalizumab, the “trial for severe asthma” value [7] is reported as “Unsuccessful”.
